In publication PMC12385050, “Novel Neuroactive Steroid Analogs and Voltage-Dependent Blockers of CaV3.2 Currents, B372 and YX23, Are Effective Anti-Nociceptives with Diminished Sedative Properties in Intact Female Mice” (Biomolecules, 2025):

Assays:
CaV3.2 [1] = molecular target: T1, CaV3.2 (Homo sapiens, UniProt O95180); assay: whole-cell patch clamp, percent inhibition of peak current at […]; assay type: cell-based
T1 construct: gene CACNA1H; human CaV3.2 channels stably expressed in HEK-293 cells

CaV3.2 [2] = molecular target: T1, CaV3.2; assay: whole-cell patch clamp, concentration-response of peak T-current; assay type: cell-based

T1 sequence (O95180 whole entry): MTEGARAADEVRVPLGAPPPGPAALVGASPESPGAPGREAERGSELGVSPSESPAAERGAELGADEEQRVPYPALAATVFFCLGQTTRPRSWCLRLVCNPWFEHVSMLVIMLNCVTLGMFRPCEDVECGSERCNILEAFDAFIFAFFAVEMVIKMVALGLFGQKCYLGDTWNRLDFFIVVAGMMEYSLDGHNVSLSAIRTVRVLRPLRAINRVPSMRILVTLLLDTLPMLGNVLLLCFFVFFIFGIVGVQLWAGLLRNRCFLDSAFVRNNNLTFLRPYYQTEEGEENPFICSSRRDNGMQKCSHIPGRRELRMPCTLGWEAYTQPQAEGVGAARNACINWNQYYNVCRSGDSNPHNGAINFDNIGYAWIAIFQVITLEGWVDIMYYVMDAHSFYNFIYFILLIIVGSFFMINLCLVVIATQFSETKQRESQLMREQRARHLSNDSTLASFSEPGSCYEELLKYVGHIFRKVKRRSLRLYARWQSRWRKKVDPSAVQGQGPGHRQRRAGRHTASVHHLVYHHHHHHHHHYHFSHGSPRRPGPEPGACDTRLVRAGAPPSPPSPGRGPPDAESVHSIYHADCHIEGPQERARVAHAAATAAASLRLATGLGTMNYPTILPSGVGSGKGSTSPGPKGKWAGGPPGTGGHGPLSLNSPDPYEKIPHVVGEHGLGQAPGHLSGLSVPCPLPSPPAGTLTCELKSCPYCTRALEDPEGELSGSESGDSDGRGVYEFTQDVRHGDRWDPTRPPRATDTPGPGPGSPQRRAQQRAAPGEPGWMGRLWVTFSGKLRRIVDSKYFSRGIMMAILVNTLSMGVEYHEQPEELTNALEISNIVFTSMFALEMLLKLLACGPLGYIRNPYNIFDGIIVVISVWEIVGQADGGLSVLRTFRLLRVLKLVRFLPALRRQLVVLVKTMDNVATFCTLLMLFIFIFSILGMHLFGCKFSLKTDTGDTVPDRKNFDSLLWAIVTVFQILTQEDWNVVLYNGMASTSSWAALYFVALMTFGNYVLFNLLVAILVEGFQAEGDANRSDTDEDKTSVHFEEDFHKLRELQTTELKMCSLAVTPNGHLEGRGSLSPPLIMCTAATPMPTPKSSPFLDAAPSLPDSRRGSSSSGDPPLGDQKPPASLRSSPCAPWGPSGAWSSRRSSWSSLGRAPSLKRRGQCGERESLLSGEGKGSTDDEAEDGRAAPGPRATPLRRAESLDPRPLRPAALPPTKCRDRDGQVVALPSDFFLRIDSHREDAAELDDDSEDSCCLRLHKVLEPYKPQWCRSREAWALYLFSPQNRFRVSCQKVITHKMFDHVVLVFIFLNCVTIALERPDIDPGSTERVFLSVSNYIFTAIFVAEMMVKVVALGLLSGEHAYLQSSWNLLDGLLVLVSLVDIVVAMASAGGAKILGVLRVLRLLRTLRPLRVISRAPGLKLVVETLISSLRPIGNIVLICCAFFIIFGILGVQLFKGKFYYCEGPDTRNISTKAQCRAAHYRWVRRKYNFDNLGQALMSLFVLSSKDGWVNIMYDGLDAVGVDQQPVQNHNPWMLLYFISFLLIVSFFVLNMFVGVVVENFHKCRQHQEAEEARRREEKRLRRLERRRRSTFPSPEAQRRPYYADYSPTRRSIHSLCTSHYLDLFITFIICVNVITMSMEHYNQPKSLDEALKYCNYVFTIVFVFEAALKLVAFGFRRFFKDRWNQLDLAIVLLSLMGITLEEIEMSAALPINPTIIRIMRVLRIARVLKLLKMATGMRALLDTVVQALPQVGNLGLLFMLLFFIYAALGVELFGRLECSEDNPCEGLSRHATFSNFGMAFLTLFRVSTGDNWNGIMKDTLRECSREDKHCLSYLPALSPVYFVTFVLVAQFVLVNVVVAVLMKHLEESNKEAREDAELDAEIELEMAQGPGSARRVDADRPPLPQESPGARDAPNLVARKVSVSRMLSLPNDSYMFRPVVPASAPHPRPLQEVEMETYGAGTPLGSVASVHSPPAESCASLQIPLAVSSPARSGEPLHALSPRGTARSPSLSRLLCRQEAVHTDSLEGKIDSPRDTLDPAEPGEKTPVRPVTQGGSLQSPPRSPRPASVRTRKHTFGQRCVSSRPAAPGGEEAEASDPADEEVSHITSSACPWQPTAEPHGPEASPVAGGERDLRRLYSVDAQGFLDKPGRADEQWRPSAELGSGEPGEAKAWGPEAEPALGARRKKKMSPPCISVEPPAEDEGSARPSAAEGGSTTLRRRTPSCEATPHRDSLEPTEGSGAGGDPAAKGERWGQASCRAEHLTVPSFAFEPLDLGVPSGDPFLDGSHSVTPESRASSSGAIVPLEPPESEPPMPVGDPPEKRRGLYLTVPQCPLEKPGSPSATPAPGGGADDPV

Row | Structure (SMILES) | inhibition at 10 µM (CaV3.2 [1]) [%] | IC50 (CaV3.2 [2]) [µM]
1 | C[C@]12CC[C@H](O)C[C@H]1CC[C@@H]1[C@@H]2CC[C@]2(C)[C@@H](C#N)CC[C@@H]12 [3β-OH, (3β,5β,17β)-3-hydroxyandrostane-17-carbonitrile] | 48.2 ± 4.2 | –
2 | C[C@]12CC[C@H]3[C@@H](CC[C@H]4C[C@@H](C#N)CC[C@@H]43)[C@@H]1CC[C@@H]2O [ECN, (3β,5α,17β)-17-hydroxyestrane-3-carbonitrile] | 47.4 ± 5.2 | –
3 | C[C@]12CC[C@H](O)C[C@@H]1CC[C@@H]1[C@@H]2CC[C@]2(C)[C@@H](C#N)CC[C@@H]12 [compound 6, (3β,5α,17β)-3-Hydroxyandrostan-17-carbonitrile] | – | 3.8
4 | CO[C@H]1CC[C@H]2[C@@H](CC[C@@H]3[C@@H]2CC[C@]2(C)[C@@H](O)CC[C@@H]32)C1 [compound 6, (3β,5α,17β)-3-Methoxyestran-17-ol] | – | 2.4
